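Protocol summary: plate cells (96-well), add compound at 5 concentrations, incubate 48 h, interpolate endpoints linearly. GI50 is the concentration that inhibits growth by half.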 The source made the active and inactive calls. Cut-off read from the data, not from the text of the source: active = GI50 up to about 1.1 µM and inactive = higher.
What was measured:
Experiment in all cases: DTP human tumour cell line panel, 48 h
KM12 = tested on: KM12
SF-268 = tested on: SF-268
A549 = tested on: A549
IGROV-1 = tested on: IGROV-1
HCT-15 = tested on: HCT-15
EKVX = tested on: EKVX
SF-295 = tested on: SF-295
SR = tested on: SR
OVCAR-8 = tested on: OVCAR-8
UACC-257 = tested on: UACC-257
Hs-578T = tested on: Hs-578T
HOP-62 = tested on: HOP-62
MDA-MB-435 = tested on: MDA-MB-435
SN12C = tested on: SN12C
COLO 205 = tested on: COLO 205
NCI-H522 = tested on: NCI-H522
NCI/ADR-RES = tested on: NCI/ADR-RES
K562 = tested on: K562
SW-620 = tested on: SW-620
OVCAR-4 = tested on: OVCAR-4

Compound	GI50 (KM12)	GI50 (SF-268)	GI50 (A549)	GI50 (IGROV-1)	GI50 (HCT-15)	GI50 (EKVX)	GI50 (SF-295)	GI50 (SR)	GI50 (OVCAR-8)	GI50 (UACC-257)	GI50 (Hs-578T)	GI50 (HOP-62)	GI50 (MDA-MB-435)	GI50 (SN12C)	GI50 (COLO 205)	GI50 (NCI-H522)	GI50 (NCI/ADR-RES)	GI50 (K562)	GI50 (SW-620)	GI50 (OVCAR-4)
CCC(C)C(=O)OCC(=O)c1ccc(-c2ccccc2)cc1 (centres undefined)	28.1 µM (inactive)	41.4 µM (inactive)	44.1 µM (inactive)	> 100 µM (inactive)	18.1 µM	25.6 µM (inactive)	59.8 µM (inactive)	31.6 µM (inactive)	79.3 µM (inactive)	27.2 µM (inactive)	45.9 µM (inactive)	> 100 µM (inactive)	99.1 µM (inactive)	> 100 µM (inactive)	> 100 µM (inactive)	22.8 µM (inactive)	76.9 µM (inactive)	41 µM (inactive)	53.6 µM (inactive)	–
COc1cccc(N2N=C3c4ccccc4-n4c(nc5ccccc54)C3C2N)c1 (centres undefined)	> 100 µM (inactive)	> 100 µM (inactive)	> 100 µM (inactive)	> 100 µM (inactive)	> 100 µM	> 100 µM (inactive)	> 100 µM (inactive)	86.5 µM (inactive)	> 100 µM (inactive)	> 100 µM (inactive)	> 100 µM (inactive)	> 100 µM (inactive)	62.8 µM (inactive)	> 100 µM (inactive)	> 100 µM (inactive)	> 100 µM (inactive)	> 100 µM (inactive)	–	> 100 µM (inactive)	> 100 µM (inactive)
CSc1c(C(=O)Nc2ccc(Cl)cc2)c(N)n(N)c(=O)c1C#N	45.9 µM (inactive)	> 100 µM (inactive)	> 100 µM (inactive)	–	77.4 µM	> 100 µM (inactive)	–	> 100 µM (inactive)	55.2 µM (inactive)	> 100 µM (inactive)	> 100 µM (inactive)	–	> 100 µM (inactive)	> 100 µM (inactive)	> 100 µM (inactive)	25.7 µM (inactive)	58.1 µM (inactive)	46.6 µM (inactive)	95.5 µM (inactive)	68.5 µM (inactive)
Nc1nc(O)c2nc(CNc3ccc(C(=O)NC(CCC(=O)O)C(=O)O)cc3)cnc2n1 (centres undefined)	> 100 µM (inactive)	> 100 µM (inactive)	> 100 µM (inactive)	> 100 µM (inactive)	> 100 µM	> 100 µM (inactive)	> 100 µM (inactive)	> 100 µM (inactive)	> 100 µM (inactive)	> 100 µM (inactive)	> 100 µM (inactive)	> 100 µM (inactive)	> 100 µM (inactive)	> 100 µM (inactive)	–	> 100 µM (inactive)	> 100 µM (inactive)	> 100 µM (inactive)	> 100 µM (inactive)	> 100 µM (inactive)
CC(C)C1(NC(=O)C2CC3c4cccc5[nH]cc(c45)CC3N(C)C2)OC2(O)C3CCCN3C(=O)C(Cc3ccccc3)N2C1=O (centres undefined)	15.2 µM (inactive)	> 100 µM (inactive)	7.21 µM (inactive)	36.4 µM (inactive)	23.6 µM	30.3 µM (inactive)	16.7 µM (inactive)	12.9 µM (inactive)	42.4 µM (inactive)	48.1 µM (inactive)	27.6 µM (inactive)	> 100 µM (inactive)	19.4 µM (inactive)	> 100 µM (inactive)	14.2 µM (inactive)	38.9 µM (inactive)	35.4 µM (inactive)	–	32.3 µM (inactive)	53.5 µM (inactive)
COc1ccc2c(c1)/C(=C\c1c(Cl)nc3sc(C)cn13)C(=O)N2	1.71 µM (inactive)	4.31 µM (inactive)	3.79 µM (inactive)	3.72 µM (inactive)	2.62 µM	7.59 µM (inactive)	1.74 µM (inactive)	0.7 µM (active)	4.06 µM (inactive)	4.11 µM (inactive)	2.74 µM (inactive)	6.4 µM (inactive)	0.286 µM (active)	7.05 µM (inactive)	1.6 µM (inactive)	3.05 µM (inactive)	3.56 µM (inactive)	0.521 µM (active)	0.826 µM (active)	–
CCn1c(-c2ccccc2)nc2c1C(=O)c1ccccc1C2=O	22.7 µM (inactive)	–	28.4 µM (inactive)	19.3 µM (inactive)	17.1 µM	–	30.1 µM (inactive)	22.3 µM (inactive)	14 µM (inactive)	3.85 µM (inactive)	27.2 µM (inactive)	42.5 µM (inactive)	15.9 µM (inactive)	20.7 µM (inactive)	14.1 µM (inactive)	15.2 µM (inactive)	13.3 µM (inactive)	25.9 µM (inactive)	32.1 µM (inactive)	12.5 µM (inactive)
CCOc1cc(CCNC)c2c(ccc3ccc(OC)c(O)c32)c1OC	11.9 µM (inactive)	18 µM (inactive)	19.3 µM (inactive)	13.9 µM (inactive)	17.5 µM	19.3 µM (inactive)	16.2 µM (inactive)	4.44 µM (inactive)	13.6 µM (inactive)	13.1 µM (inactive)	17.4 µM (inactive)	20.3 µM (inactive)	12.6 µM (inactive)	16.1 µM (inactive)	19 µM (inactive)	5.14 µM (inactive)	19.2 µM (inactive)	17 µM (inactive)	–	13.7 µM (inactive)
CSc1nc(SC)c2c(C)cn(C3OC(C)C(O)C(O)C3O)c2n1 (centres undefined)	56.8 µM (inactive)	95.7 µM (inactive)	74.5 µM (inactive)	70 µM (inactive)	74.1 µM	> 100 µM (inactive)	57 µM (inactive)	33.3 µM (inactive)	74.6 µM (inactive)	–	45.6 µM (inactive)	> 100 µM (inactive)	40 µM (inactive)	> 100 µM (inactive)	86.7 µM (inactive)	96.2 µM (inactive)	67.3 µM (inactive)	–	> 100 µM (inactive)	64.1 µM (inactive)
CN(C)c1nc2oc(-c3ccccc3)c(-c3ccccc3)c2c2nnnn12	> 100 µM (inactive)	> 100 µM (inactive)	> 100 µM (inactive)	> 100 µM (inactive)	> 100 µM	> 100 µM (inactive)	> 100 µM (inactive)	> 100 µM (inactive)	> 100 µM (inactive)	> 100 µM (inactive)	> 100 µM (inactive)	–	> 100 µM (inactive)	> 100 µM (inactive)	> 100 µM (inactive)	> 100 µM (inactive)	> 100 µM (inactive)	> 100 µM (inactive)	> 100 µM (inactive)	> 100 µM (inactive)
O=C(NCCc1n[nH]c2c1C(=O)C=C(Nc1ccccc1)C2=O)OCc1ccccc1	> 100 µM (inactive)	> 100 µM (inactive)	> 100 µM (inactive)	> 100 µM (inactive)	> 100 µM	> 100 µM (inactive)	> 100 µM (inactive)	> 100 µM (inactive)	> 100 µM (inactive)	> 100 µM (inactive)	> 100 µM (inactive)	–	> 100 µM (inactive)	> 100 µM (inactive)	> 100 µM (inactive)	> 100 µM (inactive)	> 100 µM (inactive)	–	> 100 µM (inactive)	66.4 µM (inactive)

Reference: ChEMBL document CHEMBL1201862, “PubChem BioAssay data set” (2004)
